Where “and” joins values, the source holds several entries; their conditions need not be identical. Identical values can stand only once.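 Briefly, cells in 96-well plates were exposed to five compound concentrations for 48 h, and endpoints were estimated by linear interpolation. GI50 is the concentration that inhibits growth by half.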 Calls of active or inactive are those of the source. Cut-off read from the data, not from the text of the source: active = GI50 up to about 1.1 µM and inactive = higher.
Key:
Test in all cases: inhibition of tumour cell growth, NCI panel, 48 h
786-0 = system: 786-0
A498 = system: A498
A549 = system: A549
BT-549 = system: BT-549
EKVX = system: EKVX
HCT-116 = system: HCT-116
HL-60 = system: HL-60
HT-29 = system: HT-29
Hs-578T = system: Hs-578T
IGROV-1 = system: IGROV-1
KM12 = system: KM12
LOX IMVI = system: LOX IMVI
MCF7 = system: MCF7
MDA-MB-435 = system: MDA-MB-435
MDA-N = system: MDA-N
NCI-H23 = system: NCI-H23
NCI-H460 = system: NCI-H460
NCI/ADR-RES = system: NCI/ADR-RES
OVCAR-8 = system: OVCAR-8
PC-3 = system: PC-3
RPMI-8226 = system: RPMI-8226
RXF 393 = system: RXF 393
SF-268 = system: SF-268
SK-MEL-5 = system: SK-MEL-5
SNB-19 = system: SNB-19
SNB-75 = system: SNB-75
SR = system: SR
SW-620 = system: SW-620
TK-10 = system: TK-10
U-251 = system: U-251
UO-31 = system: UO-31
ACHN = system: ACHN
CAKI-1 = system: CAKI-1
CCRF-CEM = system: CCRF-CEM
COLO 205 = system: COLO 205
DU-145 = system: DU-145
HCT-15 = system: HCT-15
HOP-62 = system: HOP-62
HOP-92 = system: HOP-92
K562 = system: K562
M14 = system: M14
MDA-MB-231 = system: MDA-MB-231
MOLT-4 = system: MOLT-4
Malme-3M = system: Malme-3M
NCI-H226 = system: NCI-H226
NCI-H522 = system: NCI-H522
OVCAR-3 = system: OVCAR-3
OVCAR-4 = system: OVCAR-4
OVCAR-5 = system: OVCAR-5
SF-295 = system: SF-295
SF-539 = system: SF-539
SK-MEL-28 = system: SK-MEL-28
SK-MEL-2 = system: SK-MEL-2
SK-OV-3 = system: SK-OV-3
SN12C = system: SN12C
T47D = system: T47D
UACC-257 = system: UACC-257
UACC-62 = system: UACC-62
HCC 2998 = system: HCC 2998

## N#Cc1c(-c2ccccc2)cc(-c2ccccc2)n(C2OC(CO)C(O)C(O)C2O)c1=S (configuration not stated)
786-0
  GI50: 55.5 µM (inactive) and 38.5 µM (inactive)
A498
  GI50: 19.7 µM (inactive)
A549
  GI50: 32.7 µM (inactive) and 46.1 µM (inactive)
BT-549
  GI50: 32.1 µM (inactive) and 25.6 µM (inactive)
EKVX
  GI50: > 100 µM (inactive)
HCT-116
  GI50: 37.4 µM (inactive) and 19.7 µM (inactive)
HL-60
  GI50: 36.2 µM (inactive) and 38.7 µM (inactive)
HT-29
  GI50: 23.1 µM (inactive) and 34.4 µM (inactive)
Hs-578T
  GI50: 21.1 µM (inactive) and 31.9 µM (inactive)
IGROV-1
  GI50: 45.5 µM (inactive) and 31 µM (inactive)
KM12
  GI50: 53.2 µM (inactive) and 48.2 µM (inactive)
LOX IMVI
  GI50: 15 µM (inactive) and 26.8 µM (inactive)
MCF7
  GI50: 27.5 µM (inactive) and 43.4 µM (inactive)
MDA-MB-435
  GI50: 21 µM (inactive) and 25.4 µM (inactive)
MDA-N
  GI50: 45 µM (inactive) and 23.2 µM (inactive)
NCI-H23
  GI50: 23.4 µM (inactive) and 29 µM (inactive)
NCI-H460
  GI50: 42.1 µM (inactive) and 28.6 µM (inactive)
NCI/ADR-RES
  GI50: 72.3 µM (inactive)
OVCAR-8
  GI50: 39.1 µM (inactive) and 32.7 µM (inactive)
PC-3
  GI50: 17.1 µM (inactive) and 29.6 µM (inactive)
RPMI-8226
  GI50: 29.2 µM (inactive) and 21.9 µM (inactive)
RXF 393
  GI50: 40.3 µM (inactive)
SF-268
  GI50: 34.2 µM (inactive) and 27.4 µM (inactive)
SK-MEL-5
  GI50: 30.4 µM (inactive) and 15.7 µM (inactive)
SNB-19
  GI50: 38 µM (inactive) and 33 µM (inactive)
SNB-75
  GI50: 33.2 µM (inactive) and 51.2 µM (inactive)
SR
  GI50: 30.8 µM (inactive) and 30.9 µM (inactive)
SW-620
  GI50: 37.2 µM (inactive) and 23.6 µM (inactive)
TK-10
  GI50: 70.3 µM (inactive)
U-251
  GI50: 18.8 µM (inactive)
UO-31
  GI50: 41.2 µM (inactive) and 34.3 µM (inactive)

## COc1cc(/C=C/c2ccc(OC)c(OC)c2)cc(OC)c1 [(E)-3,4,3',5'-TETRAMETHOXYSTILBENE]
786-0
  GI50: 20.7 µM (inactive)
A549
  GI50: 37.8 µM (inactive)
ACHN
  GI50: 30.5 µM (inactive)
BT-549
  GI50: 23.7 µM (inactive)
CAKI-1
  GI50: 32.9 µM (inactive)
CCRF-CEM
  GI50: 76.9 µM (inactive)
COLO 205
  GI50: 19.2 µM (inactive)
DU-145
  GI50: 45.2 µM (inactive)
EKVX
  GI50: 39.9 µM (inactive)
HCT-116
  GI50: 23.1 µM (inactive)
HCT-15
  GI50: 7.08 µM
HOP-62
  GI50: 63.7 µM (inactive)
HOP-92
  GI50: > 100 µM (inactive)
HT-29
  GI50: 19.3 µM (inactive)
Hs-578T
  GI50: 25.8 µM (inactive)
IGROV-1
  GI50: 46.9 µM (inactive)
K562
  GI50: 41.1 µM (inactive)
KM12
  GI50: 15.5 µM (inactive)
LOX IMVI
  GI50: 19.9 µM (inactive)
M14
  GI50: 28.1 µM (inactive)
MCF7
  GI50: 57 µM (inactive)
MDA-MB-231
  GI50: 22.9 µM (inactive)
MDA-MB-435
  GI50: 25.7 µM (inactive)
MOLT-4
  GI50: 46.6 µM (inactive)
Malme-3M
  GI50: 49.2 µM (inactive)
NCI-H226
  GI50: 30.2 µM (inactive)
NCI-H23
  GI50: 22.9 µM (inactive)
NCI-H460
  GI50: 22.2 µM (inactive)
NCI-H522
  GI50: 18.8 µM (inactive)
NCI/ADR-RES
  GI50: 20.9 µM (inactive)
OVCAR-3
  GI50: 23.7 µM (inactive)
OVCAR-4
  GI50: 53.2 µM (inactive)
OVCAR-5
  GI50: 39.8 µM (inactive)
OVCAR-8
  GI50: 39.6 µM (inactive)
PC-3
  GI50: 62.7 µM (inactive)
RPMI-8226
  GI50: 83.4 µM (inactive)
RXF 393
  GI50: 19.6 µM (inactive)
SF-268
  GI50: 39.5 µM (inactive)
SF-295
  GI50: 22.2 µM (inactive)
SF-539
  GI50: 41.3 µM (inactive)
SK-MEL-28
  GI50: 36.2 µM (inactive)
SK-MEL-2
  GI50: 32 µM (inactive)
SK-MEL-5
  GI50: 19 µM (inactive)
SK-OV-3
  GI50: 73.6 µM (inactive)
SN12C
  GI50: 31.3 µM (inactive)
SNB-19
  GI50: 84.9 µM (inactive)
SNB-75
  GI50: 34 µM (inactive)
SR
  GI50: 30.9 µM (inactive)
SW-620
  GI50: 28.7 µM (inactive)
T47D
  GI50: 23.6 µM (inactive)
TK-10
  GI50: 56.1 µM (inactive)
U-251
  GI50: 24.7 µM (inactive)
UACC-257
  GI50: 46.3 µM (inactive)
UACC-62
  GI50: 19.8 µM (inactive)
UO-31
  GI50: 19.1 µM (inactive)

## C=C(C)[C@@]1(O)CCC[C@H]1NC(=O)OC(C)(C)C
786-0
  GI50: > 100 µM (inactive)
A498
  GI50: > 100 µM (inactive)
A549
  GI50: > 100 µM (inactive)
ACHN
  GI50: > 100 µM (inactive)
BT-549
  GI50: > 100 µM (inactive)
CAKI-1
  GI50: > 100 µM (inactive)
CCRF-CEM
  GI50: 84.9 µM (inactive)
COLO 205
  GI50: > 100 µM (inactive)
DU-145
  GI50: > 100 µM (inactive)
EKVX
  GI50: > 100 µM (inactive)
HCC 2998
  GI50: > 100 µM (inactive)
HCT-116
  GI50: > 100 µM (inactive)
HCT-15
  GI50: > 100 µM
HOP-62
  GI50: > 100 µM (inactive)
HOP-92
  GI50: > 100 µM (inactive)
HT-29
  GI50: > 100 µM (inactive)
IGROV-1
  GI50: > 100 µM (inactive)
KM12
  GI50: > 100 µM (inactive)
LOX IMVI
  GI50: > 100 µM (inactive)
M14
  GI50: > 100 µM (inactive)
MCF7
  GI50: > 100 µM (inactive)
MDA-MB-231
  GI50: > 100 µM (inactive)
MDA-MB-435
  GI50: > 100 µM (inactive)
MDA-N
  GI50: > 100 µM (inactive)
Malme-3M
  GI50: > 100 µM (inactive)
NCI-H226
  GI50: > 100 µM (inactive)
NCI-H23
  GI50: > 100 µM (inactive)
NCI-H460
  GI50: > 100 µM (inactive)
NCI-H522
  GI50: > 100 µM (inactive)
NCI/ADR-RES
  GI50: > 100 µM (inactive)
OVCAR-3
  GI50: > 100 µM (inactive)
OVCAR-4
  GI50: > 100 µM (inactive)
OVCAR-5
  GI50: > 100 µM (inactive)
OVCAR-8
  GI50: > 100 µM (inactive)
PC-3
  GI50: > 100 µM (inactive)
RXF 393
  GI50: > 100 µM (inactive)
SF-268
  GI50: > 100 µM (inactive)
SF-295
  GI50: > 100 µM (inactive)
SK-MEL-28
  GI50: > 100 µM (inactive)
SK-MEL-2
  GI50: > 100 µM (inactive)
SK-MEL-5
  GI50: > 100 µM (inactive)
SK-OV-3
  GI50: > 100 µM (inactive)
SN12C
  GI50: > 100 µM (inactive)
SNB-19
  GI50: > 100 µM (inactive)
SNB-75
  GI50: > 100 µM (inactive)
SW-620
  GI50: > 100 µM (inactive)
T47D
  GI50: > 100 µM (inactive)
TK-10
  GI50: > 100 µM (inactive)
U-251
  GI50: > 100 µM (inactive)
UACC-257
  GI50: > 100 µM (inactive)
UO-31
  GI50: > 100 µM (inactive)

## CS(=O)(=O)OCCCSCCSCCCOS(C)(=O)=O
786-0
  GI50: > 100 µM (inactive)
A549
  GI50: > 100 µM (inactive)
BT-549
  GI50: > 100 µM (inactive)
CCRF-CEM
  GI50: > 100 µM (inactive)
COLO 205
  GI50: > 100 µM (inactive)
DU-145
  GI50: > 100 µM (inactive)
EKVX
  GI50: > 100 µM (inactive)
HCC 2998
  GI50: > 100 µM (inactive)
HCT-116
  GI50: > 100 µM (inactive)
HCT-15
  GI50: > 100 µM
HL-60
  GI50: > 100 µM (inactive)
HOP-62
  GI50: > 100 µM (inactive)
HOP-92
  GI50: 40.2 µM (inactive)
HT-29
  GI50: > 100 µM (inactive)
IGROV-1
  GI50: > 100 µM (inactive)
K562
  GI50: > 100 µM (inactive)
KM12
  GI50: > 100 µM (inactive)
LOX IMVI
  GI50: > 100 µM (inactive)
M14
  GI50: > 100 µM (inactive)
MCF7
  GI50: > 100 µM (inactive)
MDA-MB-231
  GI50: > 100 µM (inactive)
MDA-MB-435
  GI50: > 100 µM (inactive)
MDA-N
  GI50: > 100 µM (inactive)
MOLT-4
  GI50: > 100 µM (inactive)
NCI-H23
  GI50: > 100 µM (inactive)
NCI-H460
  GI50: > 100 µM (inactive)
NCI-H522
  GI50: > 100 µM (inactive)
NCI/ADR-RES
  GI50: > 100 µM (inactive)
OVCAR-3
  GI50: > 100 µM (inactive)
OVCAR-4
  GI50: > 100 µM (inactive)
OVCAR-5
  GI50: > 100 µM (inactive)
OVCAR-8
  GI50: > 100 µM (inactive)
PC-3
  GI50: > 100 µM (inactive)
SF-268
  GI50: > 100 µM (inactive)
SF-295
  GI50: > 100 µM (inactive)
SF-539
  GI50: > 100 µM (inactive)
SK-MEL-28
  GI50: > 100 µM (inactive)
SK-MEL-5
  GI50: > 100 µM (inactive)
SK-OV-3
  GI50: > 100 µM (inactive)
SN12C
  GI50: > 100 µM (inactive)
SNB-19
  GI50: > 100 µM (inactive)
SNB-75
  GI50: > 100 µM (inactive)
SR
  GI50: > 100 µM (inactive)
SW-620
  GI50: > 100 µM (inactive)
T47D
  GI50: > 100 µM (inactive)
TK-10
  GI50: > 100 µM (inactive)
U-251
  GI50: > 100 µM (inactive)
UACC-257
  GI50: > 100 µM (inactive)
UACC-62
  GI50: > 100 µM (inactive)
UO-31
  GI50: > 100 µM (inactive)

— ChEMBL document CHEMBL1201862, “PubChem BioAssay data set” (2004)
